Data set [1] in a line: HPLC-UV-CAD (QTOF LC-MS) extractables of stoppers: 50/50 IPA/Water extract. Type of data set: physicochemical. As to conditions: stopper extract, reflux 12 hours, relative quantitation against standard (12-HDA, Irgacure 184 or Oleamide), average of duplicate injections.
The conditions of data set [2]: for ICP-MS Results (ppb) Glass vials (2% HNO3): glass vials extracted in 2% HNO3, 60° C.; for ICP-MS Results (ppb) Glass vials (2% HNO3) / ICP-MS Results (ppb) Stoppers (2% HNO3): ~24 h; for ICP-MS Results (ppb) Stoppers (2% HNO3): stoppers extracted in 2% HNO3, 60° C.
Data set [3] can be described thus: HPLC-UV-CAD (QTOF LC-MS) extractables of stoppers: pH 9.4 extract. It is filed as physicochemical. Conditions: stopper extract, water pH 9.4, reflux 20 hours; relative quantitation against standard (12-HDA, Irgacure 184 or Oleamide); average of duplicate injections.
Where [4] appears, read: 2.5 ppb = lowest calibration concentration.
The mark [5] stands for this setting: stoppers, refluxed aqueous solution pH 3.4, 2.5 ppb = lowest calibration concentration.

Where two headings read alike, the source gives them in different places.

On to Laureth-9, for which the “Est. Conc. of extractable (possible identification), HPLC-UV-CAD” value (from here on “Est. Conc. of extractable”) in data set [1] is less than 0.5 µg/mL.
Still for that read-out and setting: in the case of `C1COCCOCCSSCCOCCO1` it was less than 0.5 µg/mL; in that of Laureth-3, less than 0.5 µg/mL.
As for `CCCCCCCCCCCCCCCC(=O)O` [Palmitic acid], in data set [1], the “Est. Conc. of extractable” value was 10.74 µg/mL.
Arsenic: in data set [2] (setting [4]), the “ICP-MS Results (ppb) Glass vials (2% HNO3)” value is given as less than 2.5 ppb and the “ICP-MS Results (ppb) Stoppers (2% HNO3)” value is on record as less than 2.5 ppb. Further, the “ICP-MS Results (ppb) Stoppers (Reflux pH 3.4)” value in data set [2] (setting [5]) is recorded as less than 2.5 ppb.
Regarding `Cc1cc(C(C)(C)C)cc(S(=O)(=O)O)c1` [5-(tert-Butyl)-3-toluenesulfonic acid], the “Est. Conc. of extractable” value in data set [1] amounted to 0.25 µg/mL.
The same measure, in the same setting: to `CCCCCCCCCCCC(=O)NCCC[N+](C)(C)CC(=O)[O-]` [Lauramidopropyl betaine] belongs less than 0.5 µg/mL.
Regarding `OCCOCCOCCO` [Triethylene glycol], the “Est. Conc. of extractable” value in data set [3] and in data set [1] was less than 0.5 µg/mL throughout.
On to Antimony, for which, in data set [2] (setting [4]), the “ICP-MS Results (ppb) Glass vials (2% HNO3)” value is given as less than 2.5 ppb. In data set [2] (pH 3.4), the “ICP-MS Results (ppb) Stoppers (Reflux pH 3.4)” value is reported as less than 2.5 ppb.
As to `CCCCCCCCCCCCCCCCCC(N)=O` [Stearamide], the “Est. Conc. of extractable” value in data set [1] was less than 0.5 µg/mL.
Still for that read-out and setting: to `CCCCCCCCCCCCCC(=O)O` [Myristic acid] belongs less than 0.5 µg/mL; to `CCCCCCCCCCCC(=O)O` [Lauric acid], less than 0.5 µg/mL.
Turning to `O=S(O)S(=O)O` [Dithionous acid], the “Est. Conc. of extractable” value in data set [3] amounted to 3.52 µg/mL.
For the molecule Cobalt, in data set [2] (setting [4]), the “ICP-MS Results (ppb) Glass vials (2% HNO3)” value was 2.6 ppb. Also, the “ICP-MS Results (ppb) Stoppers (Reflux pH 3.4)” value in data set [2] (pH 3.4) is given as less than 2.5 ppb.
In the case of Lead, in data set [2] (setting [4]), the “ICP-MS Results (ppb) Glass vials (2% HNO3)” value is on record as less than 2.5 ppb and the “ICP-MS Results (ppb) Stoppers (2% HNO3)” value is reported as less than 2.5 ppb. Further, in data set [2] (setting [5]), the “ICP-MS Results (ppb) Stoppers (Reflux pH 3.4)” value is reported as less than 2.5 ppb.
Regarding `CCCC(=O)C(O)c1ccccc1` (stereo not shown) [Lot 1-Hydroxy-1-phenyl-2-pentanone], the “Est. Conc. of extractable” value was 0.10 µg/mL in data set [3] and 30.47 µg/mL in data set [1].
For the molecule Lithium, the “ICP-MS Results (ppb) Glass vials (2% HNO3)” value in data set [2] (setting [4]) is given as 2.6 ppb. For the same molecule, the “ICP-MS Results (ppb) Stoppers (Reflux pH 3.4)” value in data set [2] (pH 3.4) is on record as less than 2.5 ppb.
The like results for Copper were, in that order, 3.7 ppb and less than 2.5 ppb.
Consider `CCCCCCCC/C=C\CCCCCCCC(N)=O` [Oleamide], for which the “Est. Conc. of extractable” value in data set [1] is less than 0.5 µg/mL.
Still for that read-out and setting: in the case of `CCCCCCCCCCCCCCCC(N)=O` [Palmitamide] it was less than 0.5 µg/mL; in that of `CCCCCC[C@@H](O)C/C=C\CCCCCCCC(=O)O` [Ricinoleic acid], less than 0.5 µg/mL.
For `CCCCCCCCCCCCOS(C)(=O)=O` [Dodecyl methanesulfonate], in data set [1], the “Est. Conc. of extractable” value is 0.65 µg/mL.
As to Cadmium, in data set [2] (setting [4]), the “ICP-MS Results (ppb) Glass vials (2% HNO3)” value is given as less than 2.5 ppb and the “ICP-MS Results (ppb) Stoppers (2% HNO3)” value is less than 2.5 ppb. Further, in data set [2] (setting [5]), the “ICP-MS Results (ppb) Stoppers (Reflux pH 3.4)” value is less than 2.5 ppb.
Consider Laureth-4, for which, in data set [1], the “Est. Conc. of extractable” value is less than 0.5 µg/mL.
Still for that read-out and setting: in the case of `CCCCOCCOCCOC(C)=O` [Butyldiglycol acetate] it was less than 0.5 µg/mL.
